# Measurements from ChEMBL document CHEMBL3885861, “Open TG-GATES”.
# Species: Rattus norvegicus
# Assay: Open TG-GATES - Regimen: Single
# Format: toxicity, organism-based, Sprague-Dawley
# Parameters: regimen Single, gender Male, age 6 weeks
# Settings: in vivo, po, 750 mg/kg, route gavage, dose level High; for APTT / Bas / Eos / Fbg / Hb / Ht / Lym / MCH / MCHC / MCV / Mono / Neu / PT / Plat / RBC / Ret / WBC: tissue Blood; for KIDNEY_L / KIDNEY_R / KIDNEY_TOTAL: tissue Kidney; for LIVER: tissue Liver; for A/G / ALP / ALT / AST / BUN / CRE / Ca / Cl / DBIL / GLC / IP / K / LDH / Na / PL / RALB / TBIL / TC / TG / TP / gamma-GTP: tissue Plasma
compound,measurement,setting,value
CN(C/C=C/C#CC(C)(C)C)Cc1cccc2ccccc12 [TERBINAFINE],TERMINAL_BW,3 h,226.5 g
same,APTT,3 h,19.1 s
same,Bas,3 h,0.4%
same,Eos,3 h,0.8%
same,Fbg,3 h,220.4 mg/dL
same,Hb,3 h,12.9 g/dL
same,Ht,3 h,38.4%
same,Lym,3 h,76.8%
same,MCH,3 h,21.1 pg
same,MCHC,3 h,33.5%
same,MCV,3 h,63 fL
same,Mono,3 h,1.8%
same,Neu,3 h,19.8%
same,PT,3 h,12.3 s
same,Plat,3 h,120 x10_4/uL
same,RBC,3 h,610.2 x10_4/ul
same,Ret,3 h,7.2%
same,WBC,3 h,85.9 x10_2/uL
same,KIDNEY_L,3 h,1 g
same,KIDNEY_R,3 h,1 g
same,KIDNEY_TOTAL,3 h,2 g
same,LIVER,3 h,9.8 g
same,A/G,3 h,1.7
same,ALP,3 h,978.4 IU/L
same,ALT,3 h,35.6 IU/L
same,AST,3 h,69.2 IU/L
same,BUN,3 h,9.8 mg/dL
same,CRE,3 h,0.4 mg/dL
same,Ca,3 h,10.6 mg/dL
same,Cl,3 h,103 meq/L
same,DBIL,3 h,0.08 mg/dL
same,GLC,3 h,204.6 mg/dL
same,IP,3 h,9.1 mg/dL
same,K,3 h,3.7 meq/L
same,LDH,3 h,180.8 IU/L
same,Na,3 h,141.6 meq/L
same,PL,3 h,128.6 mg/dL
same,RALB,3 h,3.4 g/dL
same,TBIL,3 h,0.1 mg/dL
same,TC,3 h,76.4 mg/dL
same,TG,3 h,36 mg/dL
same,TP,3 h,5.5 g/dL
same,gamma-GTP,3 h,1 IU/L
same,TERMINAL_BW,6 h,226.5 g
same,APTT,6 h,18 s
same,Bas,6 h,0.6%
same,Eos,6 h,0.8%
same,Fbg,6 h,217.6 mg/dL
same,Hb,6 h,12.8 g/dL
same,Ht,6 h,37.9%
same,Lym,6 h,77.6%
same,MCH,6 h,21.6 pg
same,MCHC,6 h,33.8%
same,MCV,6 h,63.8 fL
same,Mono,6 h,3%
same,Neu,6 h,18%
same,PT,6 h,12.2 s
same,Plat,6 h,124.3 x10_4/uL
same,RBC,6 h,595 x10_4/ul
same,Ret,6 h,7.2%
same,WBC,6 h,79 x10_2/uL
same,KIDNEY_L,6 h,1 g
same,KIDNEY_R,6 h,1 g
same,KIDNEY_TOTAL,6 h,2 g
same,LIVER,6 h,9.7 g
same,A/G,6 h,1.7
same,ALP,6 h,823.4 IU/L
same,ALT,6 h,35.4 IU/L
same,AST,6 h,70 IU/L
same,BUN,6 h,12.4 mg/dL
same,CRE,6 h,0.4 mg/dL
same,Ca,6 h,10.5 mg/dL
same,Cl,6 h,103.2 meq/L
same,DBIL,6 h,0.082 mg/dL
same,GLC,6 h,206.2 mg/dL
same,IP,6 h,9.6 mg/dL
same,K,6 h,3.9 meq/L
same,LDH,6 h,174.2 IU/L
same,Na,6 h,141 meq/L
same,PL,6 h,121.2 mg/dL
same,RALB,6 h,3.5 g/dL
same,TBIL,6 h,0.1 mg/dL
same,TC,6 h,68.2 mg/dL
same,TG,6 h,36.6 mg/dL
same,TP,6 h,5.5 g/dL
same,gamma-GTP,6 h,0.8 IU/L
same,TERMINAL_BW,9 h,225.4 g
same,APTT,9 h,18.8 s
same,Bas,9 h,0.6%
same,Eos,9 h,1%
same,Fbg,9 h,221.6 mg/dL
same,Hb,9 h,12.8 g/dL
same,Ht,9 h,38.2%
same,Lym,9 h,73.2%
same,MCH,9 h,21.3 pg
same,MCHC,9 h,33.6%
same,MCV,9 h,63.6 fL
same,Mono,9 h,2.6%
same,Neu,9 h,22.6%
same,PT,9 h,12.3 s
same,Plat,9 h,114 x10_4/uL
same,RBC,9 h,601.8 x10_4/ul
same,Ret,9 h,6.8%
same,WBC,9 h,85 x10_2/uL
same,KIDNEY_L,9 h,1 g
same,KIDNEY_R,9 h,1 g
same,KIDNEY_TOTAL,9 h,2 g
same,LIVER,9 h,9.3 g
same,A/G,9 h,1.7
same,ALP,9 h,1027.6 IU/L
same,ALT,9 h,32.8 IU/L
same,AST,9 h,64.2 IU/L
same,BUN,9 h,12.2 mg/dL
same,CRE,9 h,0.4 mg/dL
same,Ca,9 h,10 mg/dL
same,Cl,9 h,103.6 meq/L
same,DBIL,9 h,0.07 mg/dL
same,GLC,9 h,205.6 mg/dL
same,IP,9 h,10.4 mg/dL
same,K,9 h,4 meq/L
same,LDH,9 h,163.2 IU/L
same,Na,9 h,141.2 meq/L
same,PL,9 h,112.8 mg/dL
same,RALB,9 h,3.4 g/dL
same,TBIL,9 h,0.1 mg/dL
same,TC,9 h,57.6 mg/dL
same,TG,9 h,24.4 mg/dL
same,TP,9 h,5.4 g/dL
same,gamma-GTP,9 h,1 IU/L
same,TERMINAL_BW,24 h,233.7 g
same,APTT,24 h,18.6 s
same,Bas,24 h,0.8%
same,Eos,24 h,1%
same,Fbg,24 h,216.6 mg/dL
same,Hb,24 h,13.1 g/dL
same,Ht,24 h,38.5%
same,Lym,24 h,78.8%
same,MCH,24 h,21.7 pg
same,MCHC,24 h,34%
same,MCV,24 h,64.1 fL
same,Mono,24 h,3.4%
same,Neu,24 h,15.6%
same,PT,24 h,12.3 s
same,Plat,24 h,122.8 x10_4/uL
same,RBC,24 h,601.6 x10_4/ul
same,Ret,24 h,6.4%
same,WBC,24 h,81.1 x10_2/uL
same,KIDNEY_L,24 h,1.1 g
same,KIDNEY_R,24 h,1.1 g
same,KIDNEY_TOTAL,24 h,2.2 g
same,LIVER,24 h,10.8 g
same,A/G,24 h,1.8
same,ALP,24 h,1101 IU/L
same,ALT,24 h,51.6 IU/L
same,AST,24 h,89.4 IU/L
same,BUN,24 h,13.2 mg/dL
same,CRE,24 h,0.4 mg/dL
same,Ca,24 h,10.3 mg/dL
same,Cl,24 h,103.6 meq/L
same,DBIL,24 h,0.076 mg/dL
same,GLC,24 h,203.4 mg/dL
same,IP,24 h,8.6 mg/dL
same,K,24 h,3.7 meq/L
same,LDH,24 h,203.6 IU/L
same,Na,24 h,141.6 meq/L
same,PL,24 h,106 mg/dL
same,RALB,24 h,3.6 g/dL
same,TBIL,24 h,0.1 mg/dL
same,TC,24 h,57.8 mg/dL
same,TG,24 h,29.2 mg/dL
same,TP,24 h,5.5 g/dL
same,gamma-GTP,24 h,1.8 IU/L
